Laboratory results as given in PubChem BioAssay (NCI).
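Protocol summary: plate cells (96-well), add compound at 5 concentrations, incubate 48 h, interpolate endpoints linearly. Definition used: TGI = concentration required for complete inhibition of growth.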

Experiments:
Assay in all cases: NCI-60 cell line screen, 48 h
[1] = tested on: SK-MEL-28 melanoma
[2] = tested on: HCT-15 colon
[3] = tested on: SW-620 colon
[4] = tested on: RXF 393 renal
[5] = tested on: IGROV1 ovarian
[6] = tested on: OVCAR-4 ovarian
[7] = tested on: SR leukemia
[8] = tested on: EKVX NSCLC
[9] = tested on: HL-60(TB) leukemia
[10] = tested on: MCF7 breast
[11] = tested on: HOP-62 NSCLC
[12] = tested on: SK-MEL-5 melanoma
[13] = tested on: UACC-62 melanoma
[14] = tested on: LOX IMVI melanoma
[15] = tested on: MDA-MB-231 breast
[16] = tested on: COLO 205 colon
[17] = tested on: T-47D breast
[18] = tested on: SN12C renal
[19] = tested on: HT29 colon
[20] = tested on: NCI-H23 lung
[21] = tested on: OVCAR-8 ovarian
[22] = tested on: TK-10 renal
[23] = tested on: MALME-3M melanoma
[24] = tested on: K-562 leukemia
[25] = tested on: KM12 colon
[26] = tested on: RPMI-8226 leukemia
[27] = tested on: MOLT-4 leukemia
[28] = tested on: M14 melanoma
[29] = tested on: SF-268 CNS
[30] = tested on: 786-0 renal
[31] = tested on: SNB-75 CNS
[32] = tested on: HOP-92 NSCLC
[33] = tested on: MDA-N
[34] = tested on: UACC-257 melanoma
[35] = tested on: A549 NSCLC
[36] = tested on: PC-3 prostate
[37] = tested on: MDA-MB-435
[38] = tested on: DU-145 prostate
[39] = tested on: CAKI-1 renal
[40] = tested on: SF-295 CNS
[41] = tested on: HCC-2998 colon
[42] = tested on: CCRF-CEM leukemia
[43] = tested on: SK-OV-3 ovarian
[44] = tested on: U251 CNS
[45] = tested on: NCI-H226 lung
[46] = tested on: OVCAR-5 ovarian
[47] = tested on: HCT-116 colon
[48] = tested on: A498 renal
[49] = tested on: SNB-19 CNS
[50] = tested on: UO-31 renal
[51] = tested on: SK-MEL-2 melanoma
[52] = tested on: ACHN renal
[53] = tested on: HS 578T breast
[54] = tested on: SF-539 CNS
[55] = tested on: NCI-H460 lung
[56] = tested on: OVCAR-3 ovarian
[57] = tested on: NCI-H522 lung
[58] = tested on: NCI/ADR-RES ovarian

Measured: TGI

CCSc1[nH]c(Nc2nc(-c3ccccc3)n(-c3ccccc3)n2)c(C(N)=O)c1C(N)=O
not listed: [44] | [45] | [46] | [47] | [48] | [49] | [50] | [51] | [52] | [53] | [54] | [55] | [56] | [57] | [58]
> 10 µM: all other assays above

CCOC(=O)NC1CN2CCC1CC2 (centres undefined)
not listed: [10] | [22]
> 100 µM: all other assays above
